The Ki is a measure of affinity in units of concentration, obtained from inhibition or displacement.

The first assay relates to AP-1 induced transcriptional activity. The assay can be described thus: Cellular Transrepressional Assay (AP-1 luciferase reporter, PMA-activated A549 cells). Conditions: Homo sapiens, A549, 7 h, maximum inhibition, Cellular Transrepression Assay; read-out: AP-1 Max % inh (Cellular Transrepression Assay). Type of assay: cell-based. In a few lines:
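Compounds tested from 0.1 nM to 40 μM during a 7 h PMA (10 ng/ml) stimulation of A549 cells stably transfected with 7× AP-1 sites driving luciferase. Repression expressed as % reduction of PMA-induced luminescence; EC50 by curve fitting.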
(In general: A reporter such as luciferase makes a cellular process visible.)
For the compound `COCCN(C)C(=O)c1ccc(-c2ccc3c(n2)Oc2ccccc2[C@@H]3C(C)(C)C(=O)Nc2nncs2)cc1` [Example 295], the Emax was 24.4%.

In the case of `CC(C)(C(=O)Nc1nncs1)[C@H]1c2ccccc2Oc2nc(-c3ccc(C(=O)N4CCCN(Cc5ccccc5)CC4)cc3)ccc21` [Example 298], the Emax is 25.4%.

Take `CN(Cc1ccncc1)C(=O)c1ccc(-c2ccc3c(n2)Oc2ccccc2[C@@H]3C(C)(C)C(=O)Nc2nncs2)cc1` [Example 301]: the Emax was determined as 28.6%.

For `CC(C)(C(=O)Nc1nncs1)[C@H]1c2ccccc2Oc2nc(-c3ccc(C(=O)N4CCCN(CCO)CC4)cc3)ccc21` [Example 303], the Emax was found to be 28.6%.

Turning to `CC1CC(C)CN(C(=O)c2ccc(-c3ccc4c(n3)Oc3ccccc3[C@@H]4C(C)(C)C(=O)Nc3nncs3)cc2)C1` (stereo partly drawn) [Example 305], the Emax worked out at 38.3%.

For `CC(=O)N[C@@H]1CCN(C(=O)c2ccc(-c3ccc4c(n3)Oc3ccccc3[C@@H]4C(C)(C)C(=O)Nc3nncs3)cc2)C1` [Example 306], the Emax is 43.5%.

`CN(C)[C@@H]1CCN(C(=O)c2ccc(-c3ccc4c(n3)Oc3ccccc3[C@@H]4C(C)(C)C(=O)Nc3nncs3)cc2)C1` [Example 307]: the Emax turned out to be 37.1%.

Take `CC(C)(C(=O)Nc1nncs1)[C@H]1c2ccccc2Oc2nc(-c3ccc(C(=O)NCc4ccccc4)cc3)ccc21` [Example 349]: the Emax was determined as 31.7%.

`CC(C)(C(=O)Nc1nncs1)[C@H]1c2ccccc2Oc2nc(-c3ccc(C(=O)NCCc4ccccc4)cc3)ccc21` [Example 354]: the Emax came to 28.9%.

On to `CC(C)(C(=O)Nc1nncs1)[C@H]1c2ccccc2Oc2nc(-c3ccc(C(=O)NCCO)cc3)ccc21` [Example 357], for which the Emax came to 29.6%.

Another assay concerns the target T1, human full-length glucocorticoid receptor (Homo sapiens, UniProt P04150).
T1 sequence (P04150 1-777): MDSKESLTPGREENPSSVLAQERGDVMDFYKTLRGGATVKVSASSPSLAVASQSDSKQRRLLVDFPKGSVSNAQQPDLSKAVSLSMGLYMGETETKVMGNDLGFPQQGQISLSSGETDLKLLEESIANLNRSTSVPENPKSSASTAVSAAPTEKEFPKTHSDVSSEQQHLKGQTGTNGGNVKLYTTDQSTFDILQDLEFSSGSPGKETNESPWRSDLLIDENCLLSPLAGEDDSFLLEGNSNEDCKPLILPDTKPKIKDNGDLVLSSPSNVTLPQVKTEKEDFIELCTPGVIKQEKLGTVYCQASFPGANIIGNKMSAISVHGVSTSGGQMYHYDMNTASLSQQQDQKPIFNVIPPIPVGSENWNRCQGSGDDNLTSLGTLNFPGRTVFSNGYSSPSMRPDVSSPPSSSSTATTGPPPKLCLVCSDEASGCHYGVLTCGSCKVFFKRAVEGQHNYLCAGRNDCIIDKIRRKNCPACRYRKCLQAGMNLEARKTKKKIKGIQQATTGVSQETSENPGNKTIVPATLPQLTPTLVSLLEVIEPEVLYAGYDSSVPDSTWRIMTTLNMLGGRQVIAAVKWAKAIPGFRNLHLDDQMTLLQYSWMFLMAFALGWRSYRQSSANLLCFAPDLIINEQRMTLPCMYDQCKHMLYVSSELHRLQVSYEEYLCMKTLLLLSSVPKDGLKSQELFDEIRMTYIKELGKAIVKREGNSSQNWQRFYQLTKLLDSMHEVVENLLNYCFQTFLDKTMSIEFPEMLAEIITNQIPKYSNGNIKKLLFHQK
The assay can be described thus: Glucocorticoid Receptor Binding Assay (II), fluorescence polarization, FITC-dexamethasone. Also noted: recombinantly expressed human full-length glucocorticoid receptor; purchased PanVera Co., Madison P2816. The note with it: GR Binding Assay (II); read-out: GR (Ki, nM) (GR Binding Assay (II)). How it is done: Glucocorticoid Receptor Binding Assay (II)^b
In order to measure the binding of compounds on the glucocorticoid receptor a commercially available kit was used (Glucocorticoid receptor competitor assay kit, PanVera Co., Madison, W1, P2816). Briefly, a cell lysate containing recombinantly expressed human full-length glucocorticoid receptor was mixed with a fluorescently labeled glucocorticoid (4 nM FITC-dexamethasone) plus or minus test molecule. After one hour at room temperature, the fluorescence polarization (FP) of the samples were measured. […] Test molecules were analyzed in the concentration range from 0.1 nM to 40 μM.
In general terms: Polarisation of emitted light reports the rotation of a fluorescent probe.
Turning to `COc1ccc(CNc2ccc3c(n2)Oc2ccccc2[C@H]3C(C)(C)C(=O)Nc2nncs2)cc1` (racemic) [Example 136], the inhibition constant (Ki) was found to be 141 nM.

Consider `CC(C)(C(=O)Nc1nccs1)C1c2ccccc2Sc2ccccc21` [Example 9], for which the Ki is 154 nM.

As to `CC(C)(C(=O)Nc1nccs1)C1c2ccccc2-c2ccc(O)cc21` (stereo not drawn) [Example 22], the Ki was found to be 1640 nM.

Take `CCOC(=O)c1csc(NC(=O)C(C)(C)C2c3ccccc3CCc3ccccc32)n1` [Example 23]: the inhibitory constant (Ki) amounted to 445 nM.

As for `CC(C)(C(=O)Nc1nccs1)C1c2ccccc2CCc2ccccc21` [Example 25], the Ki is 41.1 nM.

For the compound `CC(C)(C(=O)Nc1nc(Cc2ccccc2)cs1)C1c2ccccc2Oc2ccccc21` [Example 36], the inhibitory constant (Ki) amounted to 1040 nM.

In the case of `CC(C)(C(=O)Nc1nccs1)C1c2ccccc2Oc2ccccc21` [Example 37], the Ki was found to be 1.4 nM.

Turning to `CC(C)(C(=O)Nc1nncs1)C1c2ccccc2Oc2ccccc21` [Example 39], the Ki worked out at 39.7 nM.

For `CCOC(=O)c1csc(NC(=O)C(C)(C)C2c3ccccc3Oc3cc(OC)ccc32)n1` (stereo not drawn) [Example 48], the Ki came out at 60.9 nM.

Take `COc1ccc2c(c1)Oc1ccccc1[C@H]2C(C)(C)C(=O)Nc1nccs1` [Example 56]: the Ki was 233 nM.

In the case of `COc1ccc2c(c1)Oc1ccccc1[C@@H]2C(C)(C)C(=O)Nc1nccs1` [Example 60], the Ki turned out to be 35.7 nM.

For the compound `COc1ccc2c(c1)Oc1ccccc1[C@@H]2C(C)(C)C(=O)Nc1ncc[nH]1` [Example 61], the inhibitory constant (Ki) is 909 nM.

With `COc1ccc2c(c1)Oc1ccccc1[C@@H]2C(C)(C)C(=O)Nc1nncs1` [Example 62], the Ki was 58 nM.

With `CC(C)(C(=O)Nc1ncns1)C1c2ccccc2Oc2ncccc21` (stereo not drawn) [Example 66], the Ki came out at 665 nM.

For `CC(C)(C(=O)Nc1nccs1)C1c2ccccc2Oc2ncccc21` (stereo not drawn) [Example 67], the Ki stood at 107 nM.

On to `CCOC(=O)c1csc(NC(=O)C(C)(C)C2c3ccccc3Oc3ncccc32)n1` (stereo not drawn) [Example 68], for which the inhibitory constant (Ki) was 820 nM.

As to `Cc1cnc(NC(=O)C(C)(C)C2c3ccccc3Oc3ncccc32)s1` (stereo not drawn) [Example 69], the Ki stood at 515 nM.

Consider `Cc1csc(NC(=O)C(C)(C)C2c3ccccc3Oc3ncccc32)n1` (stereo not drawn) [Example 70], for which the Ki came to 762 nM.

Consider `Cc1nnc(NC(=O)C(C)(C)C2c3ccccc3Oc3ncccc32)s1` (stereo not drawn) [Example 71], for which the inhibitory constant (Ki) worked out at 517 nM.

For the compound `CC(C)(C(=O)Nc1nccs1)C1c2ccccc2Oc2nc(Cl)ccc21` (stereo not drawn) [Example 75], the Ki is 29 nM.

Regarding `CC(C)(C(=O)Nc1nncs1)C1c2ccccc2Oc2nc(Cl)ccc21` (stereo not drawn) [Example 76], the inhibition constant (Ki) is 76.4 nM.

Consider `CC(C)(C(=O)Nc1nccs1)C1c2ccccc2Oc2c(O)cccc21` (stereo not drawn) [Example 81], for which the Ki was 243 nM.

For `COc1cccc2c1Oc1ccccc1C2C(C)(C)C(=O)Nc1nccs1` (stereo not drawn) [Example 84], the Ki stood at 104 nM.

Take `Cc1nc(NC(=O)C(C)(C)[C@H]2c3ccccc3Oc3cc(O)ccc32)sc1C` [Example 86]: the Ki is 32.9 nM.

As for `Cc1nc(NC(=O)C(C)(C)[C@@H]2c3ccccc3Oc3cc(O)ccc32)sc1C` [Example 91], the Ki came out at 2550 nM.

In the case of `Cc1cnc(NC(=O)C(C)(C)[C@@H]2c3ccccc3Oc3cc(O)ccc32)s1` [Example 92], the Ki worked out at 1200 nM.

As for `Cc1csc(NC(=O)C(C)(C)[C@@H]2c3ccccc3Oc3cc(O)ccc32)n1` [Example 93], the Ki was found to be 1270 nM.

As for `CC(C)(C(=O)Nc1nccs1)[C@@H]1c2ccccc2Oc2cc(O)ccc21` [Example 94], the Ki was 404 nM.

In the case of `CCOC(=O)c1csc(NC(=O)C(C)(C)C2c3ccccc3Oc3cc(O)ccc32)n1` (stereo not drawn) [Example 96], the Ki is 22.1 nM.

Turning to `CCOC(=O)c1csc(NC(=O)C(C)(C)C2c3ccccc3Oc3cc(OCOCCOC)ccc32)n1` (stereo not drawn) [Example 97], the Ki was found to be 296 nM.

On to `COCCOCOc1ccc2c(c1)Oc1ccccc1C2C(C)(C)C(=O)Nc1nccs1` (stereo not drawn) [Example 98], for which the Ki stood at 88.7 nM.

Consider `COC(=O)c1csc(NC(=O)C(C)(C)C2c3ccccc3Oc3cc(O)ccc32)n1` (stereo not drawn) [Example 99], for which the Ki turned out to be 18.3 nM.

For the compound `CC(C)(C(=O)Nc1nncs1)[C@H]1c2ccccc2Oc2cc(C#N)ccc21` [Example 112], the Ki worked out at 9.3 nM.

Regarding `CNc1ccc2c(n1)Oc1ccccc1C2C(C)(C)C(=O)Nc1nccs1` (stereo not drawn) [Example 127], the Ki was 29.7 nM.

As to `CC(C)(C(=O)Nc1nncs1)[C@@H]1c2ccccc2Oc2nc(N3CCCCC3)ccc21` [Example 134], the Ki was 444 nM.

As to `CC(C)(C(=O)Nc1nncs1)[C@@H]1c2ccccc2Oc2nc(N3CCC4(CC3)OCCO4)ccc21` [Example 135], the Ki came to 537 nM.

As for `CC(C)(C(=O)Nc1nncs1)[C@@H]1c2ccccc2Oc2nc(N3CCCC3)ccc21` [Example 137], the Ki came out at 221 nM.

For the compound `CC(C)(C(=O)Nc1nncs1)[C@H]1c2ccccc2Oc2nc(N3CCCCC3)ccc21` [Example 138], the Ki came out at 11.4 nM.

Turning to `C[C@H](Nc1ccc2c(n1)Oc1ccccc1[C@@H]2C(C)(C)C(=O)Nc1nncs1)c1ccccc1` [Example 142], the Ki amounted to 156 nM.

In the case of `C[C@@H](Nc1ccc2c(n1)Oc1ccccc1[C@@H]2C(C)(C)C(=O)Nc1nncs1)c1ccccc1` [Example 143], the Ki is 744 nM.

Consider `COC[C@H]1CCCN1c1ccc2c(n1)Oc1ccccc1[C@@H]2C(C)(C)C(=O)Nc1nncs1` [Example 145], for which the Ki stood at 1160 nM.

On to `CC(C)(C(=O)Nc1nncs1)[C@H]1c2ccccc2Oc2nc(N3CCCCCC3)ccc21` [Example 146], for which the inhibitory constant (Ki) is 37 nM.

Turning to `CC(C)(C(=O)Nc1nncs1)[C@H]1c2ccccc2Oc2nc(N3CCCC(c4ccccc4)C3)ccc21` (stereo partly drawn) [Example 147], the Ki was found to be 4030 nM.

The target in the next assay is T1, human full-length glucocorticoid receptor. The assay can be described thus: Glucocorticoid Receptor Binding Assay (I), fluorescence polarization, Fluormone GS Red. Also noted: purified human recombinant full-length glucocorticoid receptor; purchased Invitrogen Part #2893. Conditions: GR Binding Assay (I); read-out: GR (Ki, nM) (GR Binding Assay (I)). In a few lines: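 Fluorescence polarization competition: 2 nM purified full-length recombinant receptor with 1 nM Fluormone GS Red tracer, ±test compound over 8.5E-05 to 5 μM. Incubation was 2 h at room temperature in the dark before reading FP.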
On to `COCCN(C)C(=O)c1ccc(-c2ccc3c(n2)Oc2ccccc2[C@@H]3C(C)(C)C(=O)Nc2nncs2)cc1` [Example 295], for which the inhibition constant Ki was determined as 38.7 nM.

Turning to `CC(C)(C(=O)Nc1nncs1)[C@H]1c2ccccc2Oc2nc(-c3ccc(C(=O)N4CCCN(Cc5ccccc5)CC4)cc3)ccc21` [Example 298], the inhibition constant (Ki) worked out at 242 nM.

On to `CN(Cc1ccncc1)C(=O)c1ccc(-c2ccc3c(n2)Oc2ccccc2[C@@H]3C(C)(C)C(=O)Nc2nncs2)cc1` [Example 301], for which the Ki is 20.3 nM.

For the compound `CC(C)(C(=O)Nc1nncs1)[C@H]1c2ccccc2Oc2nc(-c3ccc(C(=O)N4CCCN(CCO)CC4)cc3)ccc21` [Example 303], the inhibition constant (Ki) came out at 278 nM.

For `CC1CC(C)CN(C(=O)c2ccc(-c3ccc4c(n3)Oc3ccccc3[C@@H]4C(C)(C)C(=O)Nc3nncs3)cc2)C1` (stereo partly drawn) [Example 305], the Ki came out at 24.7 nM.

Turning to `CC(=O)N[C@@H]1CCN(C(=O)c2ccc(-c3ccc4c(n3)Oc3ccccc3[C@@H]4C(C)(C)C(=O)Nc3nncs3)cc2)C1` [Example 306], the Ki was determined as 9.85 nM.

Regarding `CN(C)[C@@H]1CCN(C(=O)c2ccc(-c3ccc4c(n3)Oc3ccccc3[C@@H]4C(C)(C)C(=O)Nc3nncs3)cc2)C1` [Example 307], the Ki stood at 67.5 nM.

As to `CC(C)(C(=O)Nc1nncs1)[C@H]1c2ccccc2Oc2nc(-c3ccc(C(=O)NCc4ccccc4)cc3)ccc21` [Example 349], the Ki amounted to 5.88 nM.

Regarding `CC(C)(C(=O)Nc1nncs1)[C@H]1c2ccccc2Oc2nc(-c3ccc(C(=O)NCCc4ccccc4)cc3)ccc21` [Example 354], the Ki was determined as 20.1 nM.

Turning to `CC(C)(C(=O)Nc1nncs1)[C@H]1c2ccccc2Oc2nc(-c3ccc(C(=O)NCCO)cc3)ccc21` [Example 357], the Ki came out at 31.4 nM.

The values are drawn from patent publication US8034940B2, “Modulators of glucocorticoid receptor, AP-1, and/or NF-κB activity and use thereof” (Bristol-Myers Squibb Company, priority 2006, dated 2011).
